In patent US6924285B2, “Bicyclic heterocyclic compounds, pharmaceutical compositions containing these compounds, their use and process for preparing them” (Boehringer Ingelheim Pharma GmbH & Co., priority 2002, dated 2005):
pIC50: −log10 of the molar value.

Assays:
[1] = molecular target: T1, human EGF-receptor kinase (Homo sapiens, UniProt P00533); assay: Inhibition of human EGF-receptor kinase (enzyme assay, ELISA read-out); format: biochemical; details: cytoplasmic tyrosine kinase domain as GST fusion protein, substrate pEY/bio-pEY, 30 minutes at ambient temperature
T1 construct: GST; made in house; host or cells: Sf9 insect cells (baculovirus)
Procedure: The inhibition of human EGF-receptor kinase was determined using the cytoplasmic tyrosine kinase domain (methionine 664 to alanine 1186 based on the sequence published in Nature 309 (1984), 418). For this the protein was expressed in Sf9 insect cells as GST fusion protein using the Baculovirus expression system.
The enzyme activity was measured in the presence or absence of the test compounds in serial dilutions. The polymer pEY (4:1) obtained from SIGMA was used as the substrate. Biotinylated pEY (bio-pEY) was added as the tracer substrate. 100 μl of reaction solution contained 10 μl of the inhibitor in 50% DMSO, 20 μl of the substrate solution (200 mM HEPES pH 7.4, 50 mM magnesium acetate, 2.5 mg/ml poly(EY), 5 μg/ml bio-pEY) and 20 μl of enzyme preparation. The enzyme reaction was started by the addition of 50 μl of a 100 μM ATP solution in 10 mM of magnesium chloride. The dilution of the enzyme preparation was adjusted so that the incorporation of phosphate in the bio-pEY was linear in terms of time and quantity of enzyme. The enzyme preparation was diluted in 20 mM HEPES pH 7.4, 1 mM EDTA, 130 mM common salt, 0.05% Triton X-100, 1 mM DTT and 10% glycerol.
The enzyme assays were carried out at ambient temperature over a period of 30 minutes and ended by the addition of 50 μl of a stopping solution (250 mM EDTA in 20 mM HEPES pH 7.4). 100 μl were placed on a streptavidine-coated microtitre plate and incubated for 60 minutes at ambient temperature. Then the plate was washed with 200 μl of a wash solution (50 mM Tris, 0.05% Tween 20). After the addition of 100 μl of an HRPO-labelled anti-PY antibody (PY20H Anti-PTyr:HRP made by Transduction Laboratories, 250 ng/ml) the preparation was incubated for 60 minutes. Then the microtitre plate was washed three times with 200 μl of wash solution. The samples were then combined with 100 μl of a TMB-peroxidase solution (A:B=1:1, Kirkegaard Perry Laboratories). After 10 minutes the reaction was stopped. The extinction was measured at OD450 nm with an ELISA reader. All the results were measured three times.
The data were adapted by iterative calculation using an analytical pogramme for sigmoidal curves (Graph Pad Prism Version 3.0) with a variable Hill pitch. […] The active substance concentration which inhibits the activity of EGF receptor kinase by 50% (IC50) was derived from the curves.

T1 sequence (P00533 688-1210): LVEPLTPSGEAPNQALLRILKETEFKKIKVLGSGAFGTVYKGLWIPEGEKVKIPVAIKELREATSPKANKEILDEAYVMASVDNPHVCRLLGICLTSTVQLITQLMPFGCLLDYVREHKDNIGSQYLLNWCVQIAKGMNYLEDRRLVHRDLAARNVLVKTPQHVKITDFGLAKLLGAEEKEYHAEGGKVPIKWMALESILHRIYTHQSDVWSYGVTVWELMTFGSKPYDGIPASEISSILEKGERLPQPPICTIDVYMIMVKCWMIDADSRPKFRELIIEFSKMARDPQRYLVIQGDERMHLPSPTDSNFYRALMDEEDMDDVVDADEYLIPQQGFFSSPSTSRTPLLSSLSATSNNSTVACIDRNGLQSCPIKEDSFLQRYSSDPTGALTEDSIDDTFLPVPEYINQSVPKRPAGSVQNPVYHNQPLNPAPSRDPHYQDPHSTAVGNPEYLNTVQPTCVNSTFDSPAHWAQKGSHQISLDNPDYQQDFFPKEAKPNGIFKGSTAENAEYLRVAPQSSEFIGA

- pIC50 [1]: 9.05
- melting point: 234 °C
SMILES: COc1cc2ncnc(Nc3ccc(F)c(Cl)c3)c2cc1O[C@H]1CC[C@@H](NS(C)(=O)=O)CC1 [Example 3, 4-[(3-chloro-4-fluoro-phenyl)amino]-6-(cis-4-methanesulphonylamino-cyclohexan-1-yloxy)-7-methoxy-quinazoline]
